Source: paper PMC5065787 (Bioorganic & medicinal chemistry, 2016)
Residue numbers refer to the chain shown, from its start.

What was measured:
WT h15-LOX-1 = molecular target: T1, WT h15-LOX-1 (Homo sapiens, UniProt P16050); assay: Steady-state substrate kinetics, WT; type: biochemical; conditions: error in parentheses, no unit in table (sec^−1)
T1 sequence (P16050 1-662): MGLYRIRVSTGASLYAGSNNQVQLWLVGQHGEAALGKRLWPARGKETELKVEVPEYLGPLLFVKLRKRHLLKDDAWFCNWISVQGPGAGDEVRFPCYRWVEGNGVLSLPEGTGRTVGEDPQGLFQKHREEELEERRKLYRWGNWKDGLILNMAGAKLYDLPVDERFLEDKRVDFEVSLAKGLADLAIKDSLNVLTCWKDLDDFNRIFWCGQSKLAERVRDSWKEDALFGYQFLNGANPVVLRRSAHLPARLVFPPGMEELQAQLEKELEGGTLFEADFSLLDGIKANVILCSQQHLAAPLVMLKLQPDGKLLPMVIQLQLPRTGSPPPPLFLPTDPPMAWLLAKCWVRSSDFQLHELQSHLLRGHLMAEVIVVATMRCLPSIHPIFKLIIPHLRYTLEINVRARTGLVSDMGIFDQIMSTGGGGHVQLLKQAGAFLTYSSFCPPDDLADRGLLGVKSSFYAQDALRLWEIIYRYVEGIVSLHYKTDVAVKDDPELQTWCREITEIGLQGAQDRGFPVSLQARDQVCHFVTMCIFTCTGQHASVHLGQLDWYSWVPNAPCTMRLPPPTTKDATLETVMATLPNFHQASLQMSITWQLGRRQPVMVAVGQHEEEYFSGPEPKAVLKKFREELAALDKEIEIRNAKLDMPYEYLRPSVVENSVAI

h15-LOX-1 F414W = molecular target: T2, h15-LOX-1 F414W (Homo sapiens, UniProt P16050, F414W); assay: Steady-state substrate kinetics, F414W; type: biochemical; conditions: error in parentheses, no unit in table (sec^−1)
T2 sequence (P16050 1-662 F414W): T1 sequence (P16050 1-662) with F414W

kcat (WT h15-LOX-1): 11 (0.5)
kcat (h15-LOX-1 F414W): 2.8 (0.08)
SMILES: CCCCC/C=C\C/C=C\C/C=C\C/C=C\CCCC(=O)O [AA, arachidonic acid]
